# Target: TRK A (Homo sapiens (Human), UniProt P04629)
# Assay: HotSpot assay platform, radiometric kinase inhibition
# Format: biochemical
# Settings: 100 μM ATP, class symbol
# Description: The HotSpot assay platform was used to measure kinase/inhibitor interactions as described in Anastassiadis et al., Nat Biotechnol. 29:1039-45, 2011. In brief, for each reaction, kinase and substrate were mixed in a buffer containing 20 mM HEPES (pH 7.5), 10 mM MgCl2, 1 mM EGTA, 0.02% Brij35, 0.02 mg/mL BSA, 0.1 mM Na3VO4, 2 mM DTT, and 1% DMSO. Compounds were then added to each reaction mixture. After a 20-min incubation, ATP (Sigma-Aldrich) and [γ-33P] ATP (PerkinElmer) were added at a final total concentration of 100 μM. Reactions were carried out at room temperature for 2 h and spotted onto P81 ion exchange cellulose chromatography paper (Whatman). Filter paper was washed in 0.75% phosphoric acid to remove unincorporated ATP. The percent remaining kinase activity relative to a vehicle-containing (DMSO) kinase reaction was calculated for each kinase/inhibitor pair. Outliers were identified and removed as described in Anastassiadis et al., Nat Biotechnol. 29:1039-45, 2011. IC50 values were calculated using Prism 5 (GraphPad).
# Chain of TRK A (P04629 33-796): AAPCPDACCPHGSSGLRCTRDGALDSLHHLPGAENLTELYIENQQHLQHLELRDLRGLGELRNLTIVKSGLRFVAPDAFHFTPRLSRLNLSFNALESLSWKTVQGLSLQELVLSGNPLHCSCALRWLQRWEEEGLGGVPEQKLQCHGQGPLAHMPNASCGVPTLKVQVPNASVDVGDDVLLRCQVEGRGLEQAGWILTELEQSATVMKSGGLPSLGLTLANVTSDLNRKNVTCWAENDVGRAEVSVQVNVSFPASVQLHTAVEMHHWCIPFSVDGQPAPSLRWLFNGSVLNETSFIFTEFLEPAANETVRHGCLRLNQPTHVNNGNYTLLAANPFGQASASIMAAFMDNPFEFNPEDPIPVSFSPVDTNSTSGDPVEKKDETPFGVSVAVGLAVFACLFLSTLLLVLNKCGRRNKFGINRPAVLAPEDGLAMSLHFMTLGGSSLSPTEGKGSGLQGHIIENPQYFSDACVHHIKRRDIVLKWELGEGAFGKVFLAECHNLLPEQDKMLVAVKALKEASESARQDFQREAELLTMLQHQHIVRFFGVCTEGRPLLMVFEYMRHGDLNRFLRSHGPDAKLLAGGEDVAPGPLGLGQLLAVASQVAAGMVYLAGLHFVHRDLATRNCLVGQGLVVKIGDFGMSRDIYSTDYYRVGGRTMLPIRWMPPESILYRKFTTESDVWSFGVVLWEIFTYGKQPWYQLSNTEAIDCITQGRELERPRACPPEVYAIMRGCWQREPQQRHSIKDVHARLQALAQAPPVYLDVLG
row,SMILES,IC50 [nM]
1,CC1(C)CCc2ncc(F)cc2C2CCCN2c2ccn3ncc(c3n2)NC1=O (racemic) [Compound 8-8],100 to 1000
2,C[C@@H]1CCn2cc(F)cc(c2=O)N2CCCN2c2ccn3ncc(c3n2)C(=O)N1 [Compound 3-3],> 1000
3,CC1c2ncc(F)cc2[C@H]2CCCN2c2ccn3ncc(c3n2)C(=O)N[C@@H]1C (some centres unmarked) [Compound 11-6],< 100
4,C[C@@H]1CCOc2ncc(F)cc2N2CCCN2c2ccn3ncc(c3n2)C(=O)N1 [Compound 4-3],< 100
5,C[C@@H]1/C=C\c2ncc(F)cc2[C@@H]2CCCN2c2ccn3ncc(c3n2)C(=O)N1 [Compound 10-6],100 to 1000
6,C[C@@H]1CCc2cnc(F)cc2C2CCCN2c2ccc3ncc(n3n2)C(=O)N1 (some centres unmarked) [Compound 12-12],> 1000
7,C[C@@H]1CCc2ncc(F)cc2N2CC3(CC3)CN2c2ccn3ncc(c3n2)C(=O)N1 [Compound 6-10],< 100
8,"C[C@@H]1CCc2ccccc2N2CCCN2c2ccn3ncc(c3n2)C(=O)N1 [Compound 1-17, (R,1^3E,1^4E)-6-methyl-7-aza-1(5,3)-pyrazolo[1,5-a]pyrimidine-2(1,2)-pyrazolidina-3(1,2)-benzacyclooctaphan-8-one]",< 100
9,C=C1c2ncc(F)cc2[C@@H]2CCCN2c2ccn3ncc(c3n2)C(=O)N[C@@H]1C [Compound 11-5],> 1000
10,C[C@@H]1CCc2ncc(F)cc2[C@@H]2CCCN2c2ccc3ncc(n3n2)C(=O)N1 [Compound 7-12],> 1000
11,C[C@@H]1CCc2ncc(F)cc2[C@H]2CCCN2c2ccc3ncc(n3n2)C(=O)N1 [Compound 7-11],< 100
12,C[C@@H]1CCc2ncncc2[C@H]2CCCN2c2ccc3ncc(n3n2)C(=O)N1 [Compound 13-11],< 100
13,C[C@@H]1/C=C/c2ncc(F)cc2[C@H]2CCCN2c2ccn3ncc(c3n2)C(=O)N1 [Compound 9-7],< 100
14,"C[C@@H]1CCc2ncc(F)cc2N2CCCN2c2ccn3ncc(c3n2)C(=O)N1 [Compound 1-8, (R,1^3E,1^4E)-3^5-fluoro-6-methyl-7-aza-1(5,3)-pyrazolo[1,5-a]pyrimidine-3(3,2)-pyridina-2(1,2)-pyrazalidinacyclooctaphan-8-one]",< 100
15,C[C@@H]1/C=C\c2ncc(F)cc2[C@H]2CCCN2c2ccn3ncc(c3n2)C(=O)N1 [Compound 10-5],< 100
16,C[C@@H]1CCc2ncc(F)cc2N2CCC(=O)N2c2ccn3ncc(c3n2)C(=O)N1 [Compound 5-6],100 to 1000

# Other lines, results leading:
row,IC50 [nM],SMILES
1,> 1000,"C[C@H]1CNC(=O)c2cnn3ccc(nc23)N2C[C@@H]3C[C@@H]3[C@H]2c2cc(F)cn1c2=O (single isomer, unassigned) [Compound 23-4]"
2,> 1000,C[C@@H]1CCc2ncc(F)cc2[C@@H]2[C@H]3C[C@H]3CN2c2ccn3ncc(c3n2)C(=O)N1 [Compound 18-12]
3,> 1000,C[C@@H]1CCn2cc(nn2)[C@@H]2CCCN2c2ccn3ncc(c3n2)C(=O)N1 [Compound 14-7]
4,> 1000,C[C@@H]1CCc2ncc(F)cc2[C@H]2[C@@H]3[C@H](CN2c2ccn4ncc(c4n2)C(=O)N1)C3(C)C [Compound 17-12]
5,> 1000,C[C@@H]1CCc2ncc(F)cc2[C@@H]2[C@H]3[C@@H](CN2c2ccn4ncc(c4n2)C(=O)N1)C3(C)C [Compound 17-13]
6,< 100,C[C@@H]1CCc2ncc(F)cc2[C@H]2[C@H]3[C@@H](CN2c2ccn4ncc(c4n2)C(=O)N1)C3(C)C [Compound 24-10]
7,< 100,O=C1N[C@H](C2CC2)CCc2ncc(F)cc2[C@H]2[C@@H]3C[C@@H]3CN2c2ccn3ncc1c3n2 [Compound 20-5]
8,< 100,C[C@H]1CNC(=O)c2cnn3ccc(nc23)N2C[C@H]3C[C@H]3[C@@H]2c2cc(F)cnc2O1 [Compound 22-6]
9,> 1000,C[C@@H]1CCn2nncc2[C@H]2CCCN2c2ccn3ncc(c3n2)C(=O)N1 [Compound 15-10]
10,> 1000,"C[C@@H]1CCc2ncc(F)cc2N2CCC[C@H]2c2ccn3ncc(c3n2)C(=O)N1 (single isomer, unassigned) [Compound 16-10]"
11,< 100,"C=C1c2ncc(F)cc2[C@H]2[C@@H]3C[C@@H]3CN2c2ccn3ncc(c3n2)C(=O)N[C@@H]1C (single isomer, unassigned) [Compound 21-4]"
12,< 100,O=C1NC2(CCc3ncc(F)cc3[C@H]3[C@@H]4C[C@@H]4CN3c3ccn4ncc1c4n3)CC2 [Compound 19-5]
13,100 to 1000,C[C@@H]1CCc2ncncc2[C@@H]2CCCN2c2ccc3ncc(n3n2)C(=O)N1 [Compound 13-12]
14,100 to 1000,"C=C1c2ncc(F)cc2[C@@H]2[C@H]3C[C@H]3CN2c2ccn3ncc(c3n2)C(=O)N[C@@H]1C (single isomer, unassigned) [Compound 21-5]"
15,< 100,C[C@@H]1CCc2ncc(F)cc2[C@H]2[C@@H]3C[C@@H]3CN2c2ccn3ncc(c3n2)C(=O)N1 [Compound 18-11]
16,> 1000,C[C@@H]1CCc2ncc(F)cc2[C@@H]2[C@@H]3[C@H](CN2c2ccn4ncc(c4n2)C(=O)N1)C3(C)C [Compound 24-11]
17,> 1000,O=C1NC2(CCc3ncc(F)cc3[C@@H]3[C@H]4C[C@H]4CN3c3ccn4ncc1c4n3)CC2 [Compound 19-6]
18,> 1000,O=C1N[C@H](C2CC2)CCc2ncc(F)cc2[C@@H]2[C@H]3C[C@H]3CN2c2ccn3ncc1c3n2 [Compound 20-6]
19,> 1000,C[C@H]1CNC(=O)c2cnn3ccc(nc23)N2C[C@@H]3C[C@@H]3[C@H]2c2cc(F)cnc2O1 [Compound 22-7]
20,> 1000,C[C@@H]1CCn2cc(nn2)[C@H]2CCCN2c2ccn3ncc(c3n2)C(=O)N1 [Compound 14-6]
21,> 1000,"C[C@@H]1CCc2ncc(F)cc2N2CCC[C@@H]2c2ccn3ncc(c3n2)C(=O)N1 (single isomer, unassigned) [Compound 16-11]"
22,< 100,"C[C@H]1CNC(=O)c2cnn3ccc(nc23)N2C[C@H]3C[C@H]3[C@@H]2c2cc(F)cn1c2=O (single isomer, unassigned) [Compound 23-3]"

# Source: patent publication US11098046B2, “Macrocyclic compounds as TRK kinase inhibitors and uses thereof” (ANGEX PHARMACEUTICAL, INC., priority 2017, dated 2021)
